{
  "source": "patent US20240168030A1",
  "about": "“DIRECT FLUORESCENT GLYCAN LABELING” (BIO-TECHNE CORPORATION, priority 2019, published 2024)",
  "key": {"FUT9": {"target": "T1, FUT9 (Homo sapiens, UniProt Q9Y231)", "T1 construct": "purchased Bio-Techne (Minneapolis, MN)", "T1 sequence (Q9Y231 1-359)": "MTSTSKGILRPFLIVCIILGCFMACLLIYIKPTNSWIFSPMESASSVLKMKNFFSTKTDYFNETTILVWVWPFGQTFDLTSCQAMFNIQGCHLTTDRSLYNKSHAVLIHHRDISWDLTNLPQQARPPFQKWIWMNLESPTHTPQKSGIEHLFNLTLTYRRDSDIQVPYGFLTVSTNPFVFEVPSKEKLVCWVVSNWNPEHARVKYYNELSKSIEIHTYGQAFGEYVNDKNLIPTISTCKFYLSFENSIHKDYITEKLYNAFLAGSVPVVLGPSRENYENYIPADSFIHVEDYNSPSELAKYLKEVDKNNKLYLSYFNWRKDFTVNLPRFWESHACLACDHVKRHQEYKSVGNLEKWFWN", "assay": "Fluorescent labeling with fluorophore-conjugated fucose by FUT9", "type": "biochemical", "parameters": "key to Tolerance of the fluorophore by FUT9: +++: indicated by number of + signs; ++: indicated by number of + signs; indicated by number of + signs", "settings": "for Tolerance of the fluorophore by FUT9: fluorophore-conjugated fucose donor, acceptor GlcNAc of lactosamine, FIG. 9", "procedure": "FIG. 9A-FIG. 9B show exemplary results of probing substrate glycans of various fucosyltransferases on fetuin and asialofetuin. FIG. 9A. Probing substrate glycans of fucosyltransferases with guanosine 5′-diphosphate activated Cy5 conjugated fucose (GDP-Cy5-Fuc). […] FUT9 labeled itself (indicated by an arrow in the gel). FIG. 9B. Tolerance of Alexa-Fluor®555 (555), Alexa-Fluor®488 (488), and Cy5 by the indicated fucosyltransferases. All reactions were incubated at 37° C. for 30 minutes and then separated on SDS-PAGE and imaged with silver staining (upper panels) and fluorescent imager (lower panels). M, molecular marker.\n(§1) FIG. 10A-FIG. 10D show exemplary results of probing core-6 fucosylation on antibodies by FUT8 incorporation of fluorophores. FIG. 10A. Results of probing substrate glycans of FUT8 (F8) and FUT9 (F9) on Cantuzumab, an anti-Muc1 therapeutic antibody, and NIST reference mAb 8671 using guanosine 5′-diphosphate activated Alexa-Fluor®555 conjugated fucose (GDP-AF555-Fuc) (555), GDP-Cy5-fucose (Cy5), and guanosine 5′-diphosphate activated Alexa-Fluor®488 conjugated fucose (GDP-AF488-Fuc) (488) as donor substrates. Cantuzumab was expressed in FUT8 knockout cells and is devoid of core-6 fucose. Molecular marker (MM) is a prestained Western molecular marker (Bio-Rad Laboratories, Hercules, CA). […] The product of each reaction was separated using SDS-PAGE and imaged with trichloroethanol (TCE) staining (upper panel) and fluorescent imager (lower panel). Labeling on the light chains of the antibodies by Alexa-Fluor®555 is likely the result of non-specific staining due to the use of unpurified GDP-AF555-Fuc that contained free Alexa-Fluor®555. FIG. 10B. […] FIG. 10C. […] FIG. 10D. Schematics of the glycan structures analyzed in FIG. 10B and FIG. 10C.\nMouse IgG (R&D Systems, Minneapolis, MN) was digested with Endo S thoroughly and labeled with 0.3 μg of FUT9 and 0.2 nmol of GDP-Cy5-Fuc in 30 μl at 37° C. for the indicated time points. The glycans were also pretreated with B4GalT2 for 5 minutes at 37° C. and then labeled in the same way. The reactions were separated on 15% SDS PAGE. B4GalT2 pretreatment converted all G1′ to G2′. Maximal labeling on G1′ and G2′ were achieved around 30 minutes. […] The heavy chain (HC) and light chain (LC) were visible in the TCE image. M, Western blot marker (Bio-Rad Laboratories, Hercules, CA).\n(§2) For a typical labeling reaction, 1 μg to 5 μg target protein was mixed with 0.2 nmol GDP-f-Fuc and 0.2 μg of a fucosyltransferase in 30 μL buffer of 25 mM Tris pH 7.5, 10 mM MnCl2. The mixture was incubated at 37° C. for 30 minutes. The reaction was then separated by sodium dodecyl sulfate—polyacrylamide gel electrophoresis (SDS-PAGE) and the gel was directly imaged using a fluorescent imager FluorChem M ProteinSimple, Bio-Techne, Minneapolis, MN), followed by imaging with traditional protein imaging methods such as silver staining or trichloroethanol (TCE) staining.\nThe four enzymes tolerated the three fluorophores to different levels."}, "FUT8": {"target": "T2, FUT8 (Homo sapiens, UniProt Q9BYC5)", "T2 construct": "purchased Bio-Techne (Minneapolis, MN)", "T2 sequence (Q9BYC5 1-575)": "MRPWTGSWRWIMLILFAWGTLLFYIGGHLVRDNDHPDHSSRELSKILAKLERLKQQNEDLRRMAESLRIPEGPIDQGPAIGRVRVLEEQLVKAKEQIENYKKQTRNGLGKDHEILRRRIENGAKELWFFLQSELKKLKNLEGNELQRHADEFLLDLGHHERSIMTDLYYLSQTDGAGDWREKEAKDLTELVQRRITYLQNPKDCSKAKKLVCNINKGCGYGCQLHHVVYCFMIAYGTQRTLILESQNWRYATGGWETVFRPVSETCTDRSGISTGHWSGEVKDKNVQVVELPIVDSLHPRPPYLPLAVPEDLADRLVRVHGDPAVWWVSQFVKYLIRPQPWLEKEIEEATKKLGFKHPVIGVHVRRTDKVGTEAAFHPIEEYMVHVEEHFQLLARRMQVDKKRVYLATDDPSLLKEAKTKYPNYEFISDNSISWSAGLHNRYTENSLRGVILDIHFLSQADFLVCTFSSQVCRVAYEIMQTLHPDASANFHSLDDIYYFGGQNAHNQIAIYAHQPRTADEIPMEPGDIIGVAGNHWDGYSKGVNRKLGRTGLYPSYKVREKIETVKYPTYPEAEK", "assay": "Fluorescent labeling with fluorophore-conjugated fucose by FUT8", "type": "biochemical", "parameters": "key to Tolerance of the fluorophore by FUT8: +++: indicated by number of + signs; ++: indicated by number of + signs; indicated by number of + signs", "settings": "for Incorporation of conjugated fucose into antibodies by FUT8: Cantuzumab (FUT8 knockout cells) and NIST mAb 8671, FIG. 10A; for Tolerance of the fluorophore by FUT8: fluorophore-conjugated fucose donor, acceptor core GlcNAc of N-glycans, labeled Cantuzumab in FIG. 10", "description": "as §1, §2\nAlthough FUT8 was known to tolerate azido-fucose (Wu et al. Biochem Biophys Res Commun 473, 524-529 (2016)), it was unknown whether FUT8 could tolerate a fluorophore-conjugated fucose. To test whether FUT8 could tolerate the fluorophore-conjugated fucose and detect its substrate glycans, two substrates were used: Cantuzumab was prepared from a FUT8 knockout cell line, and a reference monoclonal antibody from the National Institute of Standards and Technology (NIST mAb, material 8671, Gaithersburg, MD). The NIST mAb is a humanized IgG1κ monoclonal antibody (Kashi et al. MAbs 10, 922-933 (2018)). IgG antibodies are known to contain an N-glycan site on their heavy chains (Reusch et al. Glycobiology 25, 1325-1334 (2015))."}},
  "data": [
    {"substance": "guanosine 5′-diphosphate activated Alexa-Fluor®555 conjugated fucose [GDP-AF555-Fuc]", "values": [
      {"measurement": "Fluorophore preference of FUT9", "setting": "FUT9; among Cy5-, AlexaFluor® 488-, and AlexaFluor® 555-conjugated fucoses, FIG. 9B", "value": "preferred"},
      {"measurement": "Tolerance of the fluorophore by FUT9", "setting": "FUT9", "value": "+++"},
      {"measurement": "Incorporation of conjugated fucose into antibodies by FUT8", "setting": "FUT8", "value": "introduced into Cantuzumab but not to NIST mAb"},
      {"measurement": "Tolerance of the fluorophore by FUT8", "setting": "FUT8", "value": "++"}
    ]},
    {"substance": "guanosine 5′-diphosphate activated Alexa-Fluor®488 conjugated fucose [GDP-AF488-Fuc]", "values": [
      {"measurement": "Tolerance of the fluorophore by FUT9", "setting": "FUT9", "value": "+++"},
      {"measurement": "Incorporation of conjugated fucose into antibodies by FUT8", "setting": "FUT8", "value": "introduced into Cantuzumab but not to NIST mAb"},
      {"measurement": "Tolerance of the fluorophore by FUT8", "setting": "FUT8", "value": "++"}
    ]}
  ]
}
